Measurements reported in article PMC6430500, “3-Fluoro-4-hydroxyprolines: Synthesis, Conformational Analysis, and Stereoselective Recognition by the VHL E3 Ubiquitin Ligase for Targeted Protein Degradation” (Journal of the American Chemical Society, 2018).

Legend:
Brd3 = molecular target: T1, Brd3 (Homo sapiens, UniProt Q15059); experiment: BET protein degradation in HeLa cells, Western blot; type: cell-based; settings: 24 h
T1 construct: endogenous in cells; host or cells: HeLa
Description: (§1) HeLa and A549 cells were kept in DMEM (Gibco) supplemented with 10%(v/v) FBS (Gibco), 2 mM L-glutamine (Gibco), penicillin (100 units /mL) and streptomycin (100 µ g/mL) (Gibco). MV4;11 cells were kept in RPMI 1640 supplemented with 10%(v/v) FBS (Gibco), 2 mM L-glutamine (Gibco), penicillin (100 units /mL) and streptomycin (100 µg/mL) (Gibco). Cells were kept at 37 °C, 5% CO2.
(§2) Testing compounds in cells
(§3) HeLa cells (3 x 105) were seeded onto each well on a six-well plate 24 h before treatment with test compounds. To treat the cells with the test compounds, medium was replaced with fresh medium containing specified concentration of test compounds for specified time. At the end of treatment, cells were washed with PBS and then were lysed by applying RIPA buffer (Sigma, R0278) supplemented with Protease inhibitor (Roche, # 04693159001) and Benzonase (Sigma, E1014). Lysate was clarified by centrifugation (20,000 x g, 10 min, 4 °C). Supernatant was collected and protein concentration of was determined by BCA assay. The rest of the clarified lysate was kept at -80° C before further […]
(§4) Protein on gel was transferred to nitrocellulose membrane using Bio-Rad Transblot system according to manufacturer guidelines. Blots were probed with anti- Brd4 (AbCam, ab128874), anti-Brd3 (AbCam, ab50818), anti- Brd2 (AbCam, ab139690) and anti-β-actin (Cell Signaling, no. 4970) antibodies. Blots were developed with secondary anti-mouse IgG (Licor, 926-32210) or anti-rabbit IgG (Licor, 926- 32213) antibodies from Licor and bands visualized using Bio-Rad ChemiDoc MP […]
(§5) Western Blot Quantification#
(§6) Image processing and band intensity quantification were performed using Bio-Rad Image Lab software version 6.0.0. Reported band intensities are normalized to loading control, i.e., β-actin or tubulin for total lysates.

Brd2 = molecular target: T2, Brd2 (Homo sapiens, UniProt P25440); experiment: as above; type: cell-based; settings: 24 h
T2 construct: endogenous in cells; host or cells: HeLa
T2 sequence (P25440 whole entry): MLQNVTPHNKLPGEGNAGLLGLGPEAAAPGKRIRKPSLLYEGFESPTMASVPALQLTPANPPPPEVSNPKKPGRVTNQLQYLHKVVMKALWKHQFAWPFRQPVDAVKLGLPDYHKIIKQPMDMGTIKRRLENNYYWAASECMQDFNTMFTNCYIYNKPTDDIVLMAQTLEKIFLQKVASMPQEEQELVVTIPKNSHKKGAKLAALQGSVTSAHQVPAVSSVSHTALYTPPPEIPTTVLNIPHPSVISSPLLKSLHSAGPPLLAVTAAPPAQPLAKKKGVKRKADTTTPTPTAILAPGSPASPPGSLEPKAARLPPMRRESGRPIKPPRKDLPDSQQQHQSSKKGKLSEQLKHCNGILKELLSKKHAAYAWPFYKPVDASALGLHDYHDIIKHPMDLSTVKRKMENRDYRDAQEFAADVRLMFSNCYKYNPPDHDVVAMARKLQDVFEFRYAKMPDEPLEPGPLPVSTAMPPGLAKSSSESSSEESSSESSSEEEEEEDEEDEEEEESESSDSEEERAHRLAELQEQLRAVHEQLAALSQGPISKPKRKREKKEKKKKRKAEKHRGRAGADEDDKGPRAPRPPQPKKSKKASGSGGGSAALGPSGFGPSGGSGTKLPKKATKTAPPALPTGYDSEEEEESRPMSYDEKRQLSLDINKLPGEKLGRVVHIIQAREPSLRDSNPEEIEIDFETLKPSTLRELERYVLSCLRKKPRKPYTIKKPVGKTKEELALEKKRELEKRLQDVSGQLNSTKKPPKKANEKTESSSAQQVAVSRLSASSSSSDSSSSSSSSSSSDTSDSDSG
Description: as §1, §2, §3, §4, §5, §6

Brd2BD1 = molecular target: T3, Brd2BD1 (Homo sapiens, UniProt P25440); experiment: ITC of PROTACs, binary titration with Brd2BD1; type: binding; settings: PROTAC in cell, Brd2BD1 in syringe
T3 construct: Brd2BD1 (71–194),; made in house; host or cells: E. coli BL21(DE3)
T3 sequence (P25440 71-194): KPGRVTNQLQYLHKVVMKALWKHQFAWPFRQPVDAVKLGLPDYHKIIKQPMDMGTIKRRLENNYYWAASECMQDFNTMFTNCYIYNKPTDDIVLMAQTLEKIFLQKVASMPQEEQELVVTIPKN
Text: structure (C2 R, C3 S, C4 R) assumed on the basis of unchanging stereogenic centres in the synthesis.
Final R(F) = 0.033, wR(F 2) = 0.085 for 275 parameters and 3901 reflections with I > 2σ(I) (corresponding R-values based on all 4067 reflections = 0.035 and 0.086, respectively), CCDC […]
Protein expression and purification.
Wild-type versions of human proteins VHL (UniProt accession number: P40337), ElonginC […]
expression. For expression of VBC, N-terminally His6-tagged VHL (54–213), ElonginC (17–112) and ElonginB (1–104) were co- expressed in Escherichia coli BL21(DE3) at 24 °C for 16 h using 0.3 mM isopropyl β-D -1-thiogalactopyranoside (IPTG). E. coli cells were lysed using a pressure cell homogenizer (Stansted Fluid Power) and lysate clarified by centrifugation. His6-tagged VCB was purified on a HisTrap FF affinity column (GE Healthcare) by elution with an imidazole gradient. The His6tag was removed using TEV protease and the untagged complex dialyzed into low -concentration imidazole buffer. VCB was then flowed through the HisTrap FF column a second time, allowing impurities to bind, as the complex eluted without binding. VCB was then additionally purified by anion exchange and size-exclusion chromatography using ResourceQ and Superdex-75 columns (GE Healthcare), respectively. The final purified complex was stored in 20 mM Bis–Tris, pH 7, 150 mM sodium chloride and 1 mM dithiothreitol (DTT). Brd2BD1 (71–194), and Brd4BD2 (333–460) were expressed with an N-terminal His6 tag in E. coli BL21(DE3) at 18 °C for 20 h using 0.2 mM IPTG.
His6-tagged BDs were purified on nickel Sepharose 6 fast flow beads (GE Healthcare) by elution with increasing concentrations of imidazole. For crystallography the His6-tagged BD was cleaved with TEV protease and dialyzed into low-concentration imidazole buffer. The BD was then flowed over the nickel beads a second time to remove impurities and protease. BDs were then additionally purified by size-exclusion chromatography using a Superdex-75 column. The BDs were purified by size-exclusion chromatography using a Superdex-75 column. The final purified proteins were stored in 20 mM 4-(2-hydroxyethyl)-1-piperazineethanesulfonic acid (HEPES), pH 7.5, 150 mM sodium chloride and 1 mM DTT. All chromatography purification steps were performed using Äkta FPLC purification systems (GE Healthcare) or glass econo-columns (Bio-Rad) at room temperature.
Isothermal titration calorimetry (ITC) of peptides and ligands
Titrations were performed on an ITC200 micro-calorimeter (GE Healthcare). The peptides were dissolved in buffer (20 mM Bis–Tris propane, 100 mM NaCl, 1 mM tris(2-carboxyethyl)phosphine […]
(TCEP), pH 7.4) at 100 µM. The compounds were titrated against 10 µM VBC complex, equilibrated in the same buffer. The titrations consisted of 20 injections of 2 µL of peptide solution at a rate of 0.5 µL/s at 120 s time intervals. An initial injection of ligand (0.4 µL) was made and discarded during data analysis. All experiments were performed at 25°C while stirring at 650 rpm.
Ligands 14a- b were diluted from DMSO stock solution to 300 µM in buffer (20 mM Bis-Tris propane, 150 mM NaCl, 1 mM TCEP, pH 7.4). The compounds were titrated against 30 µM VBC complex, equilibrated in the same buffer. The final concentration of DMSO in each experiment was […]
The data were fitted to a single-binding-site model using the MicroCal PEAQ-ITC analysis software provided by the manufacturer to obtain the stoichiometry n, the dissociation constant K d, and the enthalpy of binding ΔH . The reported values are the mean ± s.e.m. from independent measurements.
Isothermal titration calorimetry (ITC)of PROTACs
The titrations were all performed as reverse mode (protein in syringe, ligand in cell) and consisted of 19 injections of 2 µl protein solution (20 mM Bis–Tris propane, 100 mM NaCl, 1 mM tris(2-carboxyethyl)phosphine (TCEP), pH 7.4) at a rate of 0.5 µl/s at 120 s time intervals. An initial injection (0.4 µl) was made and discarded during data analysis. […]

T1 sequence (Q15059 whole entry): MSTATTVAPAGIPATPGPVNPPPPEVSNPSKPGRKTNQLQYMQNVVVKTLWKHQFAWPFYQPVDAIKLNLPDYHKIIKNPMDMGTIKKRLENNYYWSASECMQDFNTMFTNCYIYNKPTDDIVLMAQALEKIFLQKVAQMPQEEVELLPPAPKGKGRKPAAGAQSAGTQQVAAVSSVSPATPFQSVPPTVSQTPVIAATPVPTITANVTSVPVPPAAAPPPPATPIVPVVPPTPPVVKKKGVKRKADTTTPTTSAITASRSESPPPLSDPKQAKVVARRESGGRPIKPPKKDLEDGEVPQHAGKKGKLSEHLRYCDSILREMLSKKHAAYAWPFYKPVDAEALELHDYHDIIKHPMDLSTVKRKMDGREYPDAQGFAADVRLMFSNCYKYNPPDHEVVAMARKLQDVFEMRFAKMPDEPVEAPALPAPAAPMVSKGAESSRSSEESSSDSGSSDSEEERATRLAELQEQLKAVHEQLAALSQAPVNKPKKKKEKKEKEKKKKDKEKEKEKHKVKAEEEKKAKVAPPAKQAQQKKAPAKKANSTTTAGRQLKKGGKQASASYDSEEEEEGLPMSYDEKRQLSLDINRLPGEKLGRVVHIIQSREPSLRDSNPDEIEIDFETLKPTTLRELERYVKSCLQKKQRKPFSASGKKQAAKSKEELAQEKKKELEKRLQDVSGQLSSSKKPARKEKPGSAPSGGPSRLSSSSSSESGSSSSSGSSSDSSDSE

Cc1ncsc1-c1ccc(CNC(=O)[C@@H]2[C@@H](F)[C@@H](O)CN2C(=O)[C@@H](NC(=O)COCCOCCOCCNC(=O)C[C@@H]2N=C(c3ccc(Cl)cc3)c3c(sc(C)c3C)-n3c(C)nnc32)C(C)(C)C)cc1 [15a]
DC50 (Brd3): ~10 nM
DC50 (Brd2): ~10 nM
Kd (Brd2BD1): 97 ± 0.6 nM
ΔG (Brd2BD1): -9.57 ± 0.01 kcal/mol
ΔH (Brd2BD1): -13.7 ± 0.3 kcal/mol
–TΔS (Brd2BD1): 4.2 ± 0.3 kcal/mol

Cc1ncsc1-c1ccc(CNC(=O)[C@@H]2[C@H](F)[C@@H](O)CN2C(=O)[C@@H](NC(=O)COCCOCCOCCNC(=O)C[C@@H]2N=C(c3ccc(Cl)cc3)c3c(sc(C)c3C)-n3c(C)nnc32)C(C)(C)C)cc1 [15b]
DC50 (Brd3): ~3000 nM
DC50 (Brd2): ~3000 nM
Kd (Brd2BD1): 111 ± 6 nM
ΔG (Brd2BD1): -9.49 ± 0.03 kcal/mol
ΔH (Brd2BD1): -14.1 ± 0.6 kcal/mol
–TΔS (Brd2BD1): 4.9 ± 0.6 kcal/mol
